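Where inhibition never reached the appropriate level, the endpoint shown equals the highest concentration tested. Otherwise, values were interpolated linearly from a five-concentration, 48-hour dose response in 96-well plates. Abbreviation: GI50, concentration required for 50% inhibition of growth. Definition used: TGI = concentration required for complete inhibition of growth.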
Columns and labels:
Assay in all cases: NCI-60 cell line screen, 48 h
786-0 renal = system: 786-0 renal
A498 renal = system: A498 renal
A549 NSCLC = system: A549 NSCLC
ACHN renal = system: ACHN renal
BT-549 breast = system: BT-549 breast
CAKI-1 renal = system: CAKI-1 renal
CCRF-CEM leukemia = system: CCRF-CEM leukemia
COLO 205 colon = system: COLO 205 colon
DU-145 prostate = system: DU-145 prostate
EKVX NSCLC = system: EKVX NSCLC
HCC-2998 colon = system: HCC-2998 colon
HCT-116 colon = system: HCT-116 colon
HCT-15 colon = system: HCT-15 colon
HL-60(TB) leukemia = system: HL-60(TB) leukemia
HOP-62 NSCLC = system: HOP-62 NSCLC
HOP-92 NSCLC = system: HOP-92 NSCLC
HS 578T breast = system: HS 578T breast
HT29 colon = system: HT29 colon
IGROV1 ovarian = system: IGROV1 ovarian
K-562 leukemia = system: K-562 leukemia
KM12 colon = system: KM12 colon
LOX IMVI melanoma = system: LOX IMVI melanoma
M14 melanoma = system: M14 melanoma
MALME-3M melanoma = system: MALME-3M melanoma
MCF7 breast = system: MCF7 breast
MDA-MB-231 breast = system: MDA-MB-231 breast
MDA-MB-435 = system: MDA-MB-435
MOLT-4 leukemia = system: MOLT-4 leukemia
NCI-H226 lung = system: NCI-H226 lung
NCI-H23 lung = system: NCI-H23 lung
NCI-H460 lung = system: NCI-H460 lung
NCI-H522 lung = system: NCI-H522 lung
NCI/ADR-RES ovarian = system: NCI/ADR-RES ovarian
OVCAR-3 ovarian = system: OVCAR-3 ovarian
OVCAR-4 ovarian = system: OVCAR-4 ovarian
OVCAR-5 ovarian = system: OVCAR-5 ovarian
OVCAR-8 ovarian = system: OVCAR-8 ovarian
PC-3 prostate = system: PC-3 prostate
RPMI-8226 leukemia = system: RPMI-8226 leukemia
RXF 393 renal = system: RXF 393 renal
SF-268 CNS = system: SF-268 CNS
SF-295 CNS = system: SF-295 CNS
SF-539 CNS = system: SF-539 CNS
SK-MEL-2 melanoma = system: SK-MEL-2 melanoma
SK-MEL-28 melanoma = system: SK-MEL-28 melanoma
SK-MEL-5 melanoma = system: SK-MEL-5 melanoma
SK-OV-3 ovarian = system: SK-OV-3 ovarian
SN12C renal = system: SN12C renal
SNB-19 CNS = system: SNB-19 CNS
SNB-75 CNS = system: SNB-75 CNS
SR leukemia = system: SR leukemia
SW-620 colon = system: SW-620 colon
T-47D breast = system: T-47D breast
TK-10 renal = system: TK-10 renal
U251 CNS = system: U251 CNS
UACC-257 melanoma = system: UACC-257 melanoma
UACC-62 melanoma = system: UACC-62 melanoma
UO-31 renal = system: UO-31 renal

## O=C(Nc1ccc(-n2cc(-c3ccncc3)c(-c3ccc(Cl)c(O)c3)n2)cc1)c1cc(Cl)cc(Cl)c1
786-0 renal
  GI50: 1.53 µM
  TGI: 4.23 µM
A498 renal
  GI50: 17.3 µM
  TGI: > 100 µM
A549 NSCLC
  GI50: > 28 µM
  TGI: > 100 µM
ACHN renal
  GI50: 10.4 µM
  TGI: > 100 µM
BT-549 breast
  GI50: 2.53 µM
  TGI: > 100 µM
CAKI-1 renal
  GI50: 2.03 µM
  TGI: > 24.6 µM
CCRF-CEM leukemia
  GI50: 4.25 µM
  TGI: > 100 µM
COLO 205 colon
  GI50: 9.36 µM
  TGI: > 100 µM
DU-145 prostate
  GI50: > 32.8 µM
  TGI: > 100 µM
EKVX NSCLC
  GI50: 50.7 µM
  TGI: > 100 µM
HCC-2998 colon
  GI50: 3.41 µM
  TGI: > 23.6 µM
HCT-116 colon
  GI50: 2.69 µM
  TGI: > 100 µM
HCT-15 colon
  GI50: 1.31 µM
  TGI: > 21.8 µM
HL-60(TB) leukemia
  GI50: 4.41 µM
  TGI: > 31.6 µM
HOP-62 NSCLC
  GI50: 2.49 µM
  TGI: 18.8 µM
HOP-92 NSCLC
  GI50: 5.57 µM
  TGI: > 100 µM
HS 578T breast
  GI50: 4.3 µM
  TGI: > 100 µM
HT29 colon
  GI50: 2.68 µM
  TGI: > 23.6 µM
IGROV1 ovarian
  GI50: > 100 µM
  TGI: > 100 µM
K-562 leukemia
  GI50: 1.11 µM
  TGI: > 100 µM
KM12 colon
  GI50: 2.72 µM
  TGI: > 29.4 µM
LOX IMVI melanoma
  GI50: 1.19 µM
  TGI: 2.62 µM
M14 melanoma
  GI50: 1.95 µM
  TGI: 6.67 µM
MALME-3M melanoma
  GI50: 2.56 µM
  TGI: 8.81 µM
MCF7 breast
  GI50: 6.21 µM
  TGI: > 100 µM
MDA-MB-231 breast
  GI50: 0.802 µM
  TGI: 4.01 µM
MDA-MB-435
  GI50: 3.45 µM
  TGI: > 100 µM
MOLT-4 leukemia
  GI50: 5.71 µM
  TGI: > 100 µM
NCI-H226 lung
  GI50: > 100 µM
  TGI: > 100 µM
NCI-H23 lung
  GI50: 7.41 µM
  TGI: > 100 µM
NCI-H460 lung
  GI50: 4.03 µM
  TGI: > 100 µM
NCI-H522 lung
  GI50: 2.31 µM
  TGI: 7.94 µM
NCI/ADR-RES ovarian
  GI50: 6.1 µM
  TGI: > 100 µM
OVCAR-3 ovarian
  GI50: > 100 µM
  TGI: > 100 µM
OVCAR-4 ovarian
  GI50: > 94 µM
  TGI: > 100 µM
OVCAR-5 ovarian
  GI50: 8.42 µM
  TGI: 97.5 µM
OVCAR-8 ovarian
  GI50: 14.4 µM
  TGI: > 100 µM
PC-3 prostate
  GI50: 3.87 µM
  TGI: > 100 µM
RPMI-8226 leukemia
  GI50: 0.793 µM
  TGI: 4.14 µM
RXF 393 renal
  GI50: 0.291 µM
  TGI: 0.879 µM
SF-268 CNS
  GI50: > 100 µM
  TGI: > 100 µM
SF-295 CNS
  GI50: 0.738 µM
  TGI: 2.79 µM
SF-539 CNS
  GI50: 1.88 µM
  TGI: > 100 µM
SK-MEL-2 melanoma
  GI50: 5.24 µM
  TGI: > 100 µM
SK-MEL-28 melanoma
  GI50: 2.42 µM
  TGI: > 30.8 µM
SK-MEL-5 melanoma
  GI50: 1.46 µM
  TGI: 2.93 µM
SK-OV-3 ovarian
  GI50: > 21.2 µM
  TGI: > 100 µM
SN12C renal
  GI50: > 100 µM
  TGI: > 100 µM
SNB-19 CNS
  GI50: > 36.2 µM
  TGI: > 100 µM
SNB-75 CNS
  GI50: 2.79 µM
  TGI: > 100 µM
SR leukemia
  GI50: 3.33 µM
  TGI: > 100 µM
SW-620 colon
  GI50: 3.72 µM
  TGI: > 28.8 µM
T-47D breast
  GI50: > 100 µM
  TGI: > 100 µM
TK-10 renal
  GI50: > 19.9 µM
  TGI: > 100 µM
U251 CNS
  GI50: 3.93 µM
  TGI: > 100 µM
UACC-257 melanoma
  GI50: 5.68 µM
  TGI: > 100 µM
UACC-62 melanoma
  GI50: 2.96 µM
  TGI: > 28.1 µM
UO-31 renal
  GI50: 3.94 µM
  TGI: > 100 µM

Source: PubChem BioAssay (NCI)
